Paper PMC8286840, “Identifying SARS-CoV-2 antiviral compounds by screening for small molecule inhibitors of Nsp3 papain-like protease” (Biochemical Journal, 2021)
Counter-ions that a name gives are not always drawn. Like-named read-outs stand apart in the source and are kept apart here.

Columns and labels:
[1] = target: T1, SARS-CoV-2 PLpro (nsp3 1564–1878) (Severe acute respiratory syndrome coronavirus 2, UniProt P0DTD1); experiment: biochemical; set-up: FRET-quenched peptide (Pro3) cleavage by PLpro, 10 min pre-incubation, slope over 20 min, normalised to no-compound control; details: low concentration screen, read-out: % of control remaining
[2] = target: T1, SARS-CoV-2 PLpro (nsp3 1564–1878); experiment: biochemical; set-up: FRET-quenched peptide (Pro3) cleavage by PLpro, 10 min pre-incubation, slope over 20 min, normalised to no-compound control; details: high concentration screen, read-out: % of control remaining

Work on `CC(N)=NCCCCC(N)C(=O)O` (stereo in doubt) [L-N6-(1-Iminoethyl)lysine hydrochloride] yielded a remaining activity at 1.25 µM ([1]; Well no.=871) of 107% and a remaining activity at 3.75 µM ([2]; Well no.=871) of 102%.

With `Nc1ncnc2c1c(-c1cccc(OCc3ccccc3)c1)cn2C1CC(CN2CCCC2)C1` (stereo in doubt) [NVP-ADW742] the remaining activity at 1.25 µM ([1]; Well no.=4629) was 95.7% and the remaining activity at 3.75 µM ([2]; Well no.=4629) was 93.2%.

For `CC[C@@H](C)C(=O)O[C@H]1[C@H](O)[C@H]2[C@@H](CN3C[C@@H](C)CC[C@H]3[C@@]2(C)O)[C@@H]2C[C@]34O[C@]5(O)[C@@H](OC(=O)[C@](C)(O)[C@@H](C)O)CC[C@@]3(C)[C@@H]5[C@@H](OC(C)=O)[C@@H](OC(C)=O)[C@H]4[C@@]21O` (stereo in doubt) [Protoveratrine B], the remaining activity at 1.25 µM ([1]; Well no.=3454) was 97.9% and the remaining activity at 3.75 µM ([2]; Well no.=3454) was 98.3%.

Work on `CCCCC1(C2CCCC2)Cc2cc(OCC(=O)O)c(Cl)c(Cl)c2C1=O` (stereo in doubt) [R(+)-Butylindazone] yielded a remaining activity at 1.25 µM ([1]; Well no.=640) of 97.4% and a remaining activity at 3.75 µM ([2]; Well no.=640) of 101%.

In the case of `COc1cc(C=CC(=O)O)cc(OC)c1O` (stereo in doubt) [Sinapinic acid], the remaining activity at 1.25 µM ([1]; Well no.=6150) is reported as 102% and the remaining activity at 3.75 µM ([2]; Well no.=6150) is reported as 102%.

`NCC=CC(=O)O` (stereo in doubt) [cis-4-Aminocrotonic acid] gave a remaining activity at 1.25 µM ([1]; Well no.=114) of 97.3% and a remaining activity at 3.75 µM ([2]; Well no.=114) of 98.2%.

In the case of `CC(C)(CN1C(=O)C(Cl)=C(Cl)C1=O)CN1C(=O)C(Cl)=C(Cl)C1=O` [1,1'-(2,2-dimethylpropane-1,3-diyl)bis(3,4-dichloro-1H-pyrrole-2,5-dione)], the remaining activity at 1.25 µM ([1]; Well no.=5957) is reported as 102% and the remaining activity at 3.75 µM ([2]; Well no.=5957) is reported as 105%.

With `COc1cc(C(C)=O)cc(-c2cc(C(C)=O)cc(OC)c2O)c1O` [1,1'-(6,6'-dihydroxy-5,5'-dimethoxy-[1,1'-biphenyl]-3,3'-diyl)bis(ethan-1-one)] the remaining activity at 1.25 µM ([1]; Well no.=5981) was 101% and the remaining activity at 3.75 µM ([2]; Well no.=5981) was 96.6%.

Work on `C[N+]1(C)CCN(c2ccccc2)CC1` [1,1-Dimethyl-4-phenyl-piperazinium iodide] yielded a remaining activity at 1.25 µM ([1]; Well no.=741) of 92% and a remaining activity at 3.75 µM ([2]; Well no.=741) of 92.3%.

Molecule `CCCCCCCCCCCCCCCCCCOP(=O)([O-])OC1CC[N+](C)(C)CC1` [1,1-dimethylpiperidinium-4-yl octadecyl phosphate] has a remaining activity at 1.25 µM ([1]; Well no.=5460) of 102% and a remaining activity at 3.75 µM ([2]; Well no.=5460) of 107%.

`BrC1C(Br)C(Br)C(Br)C(Br)C1Br` (centres unmarked) [1,2,3,4,5,6-Hexabromocyclohexane - 1,2,3,4,5,6-Hexabromocyclohexane] gave a remaining activity at 1.25 µM ([1]; Well no.=2524) of 96.3% and a remaining activity at 3.75 µM ([2]; Well no.=2524) of 97.7%.

Molecule `CCCCCCCCCC(=O)OCC(CO)OC(=O)CCCCCCCCC` (centres unmarked) [1,2-Didecanoyl-glycerol (10:0)] has a remaining activity at 1.25 µM ([1]; Well no.=4474) of 101% and a remaining activity at 3.75 µM ([2]; Well no.=4474) of 95.2%.

`CCCCCCCC(=O)OC[C@H](CO)OC(=O)CCCCCCC` [1,2-Dioctanoyl-SN-glycerol] gave a remaining activity at 1.25 µM ([1]; Well no.=4476) of 103% and a remaining activity at 3.75 µM ([2]; Well no.=4476) of 107%.

`CCCCCCCC/C=C\CCCCCCCC(=O)OCC(CO)OC(=O)CCCCCCC/C=C\CCCCCCCC` (centres unmarked) [1,2-Dioleoyl-glycerol (18:1)] was tested, and the remaining activity at 1.25 µM ([1]; Well no.=4478) was 96% and the remaining activity at 3.75 µM ([2]; Well no.=4478) was 100%.

Work on `S=c1ccss1` [1,2-Dithiole-3-thione] yielded a remaining activity at 1.25 µM ([1]; Well no.=4139) of 93.1% and a remaining activity at 3.75 µM ([2]; Well no.=4139) of 94.1%.

With `CCCc1c(-c2ccc(O)cc2)nn(-c2ccc(O)cc2)c1-c1ccc(O)cc1` [1,3,5-tris(4-hydroxyphenyl)-4-propyl-1H-pyrazole] the remaining activity at 1.25 µM ([1]; Well no.=468) was 105% and the remaining activity at 3.75 µM ([2]; Well no.=468) was 109%.

In the case of `CCn1c(=O)c2[nH]c(-c3ccccc3)nc2n(CC)c1=O` [1,3-Diethyl-8-phenylxanthine], the remaining activity at 1.25 µM ([1]; Well no.=204) is reported as 98.5% and the remaining activity at 3.75 µM ([2]; Well no.=204) is reported as 100%.

`Cn1c(=O)c2[nH]c(-c3ccccc3)nc2n(C)c1=O` [1,3-Dimethyl-8-phenylxanthine] gave a remaining activity at 1.25 µM ([1]; Well no.=952) of 103% and a remaining activity at 3.75 µM ([2]; Well no.=952) of 99.2%.

For `Cn1c(=O)c2[nH]c(=O)[nH]c2n(C)c1=O` [1,3-Dimethyluric acid], the remaining activity at 1.25 µM ([1]; Well no.=6819) was 99.4% and the remaining activity at 3.75 µM ([2]; Well no.=6819) was 95.7%.

For `CCCn1c(=O)c2c(ncn2C)n(CCC)c1=O` [1,3-Dipropyl-7-methylxanthine], the remaining activity at 1.25 µM ([1]; Well no.=448) was 102% and the remaining activity at 3.75 µM ([2]; Well no.=448) was 101%.

Work on `N=C(N)SCCc1cccc(CCSC(=N)N)c1` [1,3-PBIT dihydrobromide] yielded a remaining activity at 1.25 µM ([1]; Well no.=1159) of 104% and a remaining activity at 3.75 µM ([2]; Well no.=1159) of 104%.

`OC[C@H]1NC[C@@H](O)[C@@H]1O` [1,4-Dideoxy-1,4-imino-D-arabinitol] was tested, and the remaining activity at 1.25 µM ([1]; Well no.=589) was 102% and the remaining activity at 3.75 µM ([2]; Well no.=589) was 100%.

Work on `OC[C@@H](O)[C@H]1NC[C@@H](O)[C@H]1O` [1,4-Dideoxy-1,4-imino-D-mannitol hydrochloride] yielded a remaining activity at 1.25 µM ([1]; Well no.=536) of 101% and a remaining activity at 3.75 µM ([2]; Well no.=536) of 99.2%.

`N=C(N)SCCc1ccc(CCSC(=N)N)cc1` [1,4-PBIT dihydrobromide] gave a remaining activity at 1.25 µM ([1]; Well no.=1255) of 104% and a remaining activity at 3.75 µM ([2]; Well no.=1255) of 105%.

In the case of `O=c1[nH]ccc2c(O)cccc12` [1,5-Isoquinolinediol], the remaining activity at 1.25 µM ([1]; Well no.=827) is reported as 97.8% and the remaining activity at 3.75 µM ([2]; Well no.=827) is reported as 99.5%.

`Cn1c(=O)[nH]c2ncn(C)c2c1=O` [1,7-Dimethylxanthine] gave a remaining activity at 1.25 µM ([1]; Well no.=691) of 98.6% and a remaining activity at 3.75 µM ([2]; Well no.=691) of 99.7%.

For `NCCCCCCCCCCN` [1,10-Diaminodecane], the remaining activity at 1.25 µM ([1]; Well no.=642) was 94.7% and the remaining activity at 3.75 µM ([2]; Well no.=642) was 91.7%.

Work on `c1cnc2c(c1)ccc1cccnc12` [1,10-Phenanthroline monohydrate] yielded a remaining activity at 1.25 µM ([1]; Well no.=1259) of 101% and a remaining activity at 3.75 µM ([2]; Well no.=1259) of 101%.

In the case of `c1ccc2c(N3CCNCC3)cccc2c1` [1-(1-Naphthyl)piperazine hydrochloride], the remaining activity at 1.25 µM ([1]; Well no.=1467) is reported as 99.5% and the remaining activity at 3.75 µM ([2]; Well no.=1467) is reported as 99.2%.

`Clc1ccc(C(c2ccccc2Cl)C(Cl)Cl)cc1` (centres unmarked) [1-(2-Chlorophenyl)-1-(4-chlorophenyl)-2,2-dichloroethane] gave a remaining activity at 1.25 µM ([1]; Well no.=76) of 96.7% and a remaining activity at 3.75 µM ([2]; Well no.=76) of 97.1%.

In the case of `COc1ccccc1N1CCNCC1` [1-(2-Methoxyphenyl)piperazine hydrochloride], the remaining activity at 1.25 µM ([1]; Well no.=1181) is reported as 104% and the remaining activity at 3.75 µM ([2]; Well no.=1181) is reported as 102%.

`O=c1[nH]c2ccccc2n1CCN1CCN(c2cccc(C(F)(F)F)c2)CC1` [1-(2-{4-[3-(trifluoromethyl)phenyl]-1-piperazinyl}ethyl)-1,3-dihydro-2H-benzimidazol-2-one] was tested, and the remaining activity at 1.25 µM ([1]; Well no.=5866) was 103% and the remaining activity at 3.75 µM ([2]; Well no.=5866) was 97.9%.

Molecule `CCCCCC(=O)c1c(O)c(Cl)c(OC)c(Cl)c1O` [1-(3,5-dichloro-2,6-dihydroxy-4-methoxyphenyl)-1-hexanone] has a remaining activity at 1.25 µM ([1]; Well no.=5626) of 99.3% and a remaining activity at 3.75 µM ([2]; Well no.=5626) of 102%.

In the case of `Clc1cccc(N2CCNCC2)c1` [1-(3-Chlorophenyl)piperazine dihydrochloride], the remaining activity at 1.25 µM ([1]; Well no.=36) is reported as 106% and the remaining activity at 3.75 µM ([2]; Well no.=36) is reported as 104%.
